Measured values taken from PubChem BioAssay AID624129 (Sanford-Burnham Center for Chemical Genomics, 2012).
Active and inactive are the calls of the source. The rule behind the calls is not given here.

Target: C-X-C chemokine receptor type 6 (Homo sapiens) (UniProt O00574)
Assay: CXCR6 receptor antagonists, dose response, cell-based, beta-arrestin, DiscoveRx, APJ panel, uHTS hits (AID 624129)
Details: CXCR6 beta-arrestin (DiscoveRx) antagonist cell assay; for outcome: CXCR6, dose range 1; for inhibition: CXCR6, run 2, dose range 1, at 79 µM (top of the series)
[1] = CXCR6, dose range 1, mean IC50 across replicates

C-X-C chemokine receptor type 6 (Homo sapiens), sequence (O00574 whole entry, looked up): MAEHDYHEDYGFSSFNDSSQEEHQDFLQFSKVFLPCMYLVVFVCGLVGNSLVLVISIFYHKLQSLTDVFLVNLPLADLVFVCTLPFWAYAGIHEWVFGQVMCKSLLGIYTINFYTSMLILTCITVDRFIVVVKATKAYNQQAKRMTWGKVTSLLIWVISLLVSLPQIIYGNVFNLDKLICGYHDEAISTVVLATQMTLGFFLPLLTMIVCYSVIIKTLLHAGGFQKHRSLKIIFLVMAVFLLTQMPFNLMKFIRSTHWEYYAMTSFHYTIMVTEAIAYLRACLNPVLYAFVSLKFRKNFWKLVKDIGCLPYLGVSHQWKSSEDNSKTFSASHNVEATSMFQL

Structure (SMILES) | outcome | IC50 [1] [µM] | IC50 (CXCR6, run 1, dose range 2) [µM] | inhibition [%] | IC50 (CXCR6, run 2, dose range 2) [µM]
CCOC(=O)c1ccc(NC(=O)c2nc(S(=O)(=O)Cc3ccccc3)ncc2Cl)cc1 | inactive | 12.9 | 12.3 | 111 | 13.5
COC(=O)c1ccc(NC(=O)c2nc(S(=O)(=O)Cc3cccc(C)c3)ncc2Cl)cc1 | inactive | 16.3 | 15.4 | 107 | 17.2
CC(=O)Nc1ccc2c(c1)Cc1cc(N3C(=O)C=CC3=O)ccc1-2 | inactive | 14.8 | 15.3 | 112 | 14.3
Cc1ccc(NC(=O)c2nc(S(=O)(=O)Cc3ccccc3C)ncc2Cl)cc1C | inactive | 13.7 | 13 | 104 | 14.3
O=C1C=CC(=O)N1c1ccc(N2CCCCC2)cc1 | inactive | 18.3 | 17.5 | 113 | 19.1
C=CCSC1=N/C(=C\c2cc(OCC)c(OC(C)=O)c([N+](=O)[O-])c2)C(=O)S1 | inactive | 47.2 | 61 | 96.9 | 33.4
COc1cc(/C=C/C(O)=C/C(=O)/C=C/c2ccc(O)cc2)ccc1O | inactive | 39.4 | 40.1 | 98.4 | 38.7
C=CCOc1ccc(C=NNc2ccc(S(=O)(=O)Nc3ccccc3C(=O)O)cc2[N+](=O)[O-])cc1OC | inactive | 28.8 | 29.4 | 98.5 | 28.2
O=C(NC(=S)N1CCN(c2ccc(C(F)(F)F)cc2[N+](=O)[O-])CC1)c1cccs1 | inactive | 12.9 | 10.4 | 85.8 | 15.4
CC(=O)Nc1nc2ccccc2n1CCOc1ccccc1Cl | inactive | 11.9 | 8.79 | 80.9 | 15
CCc1ccc(NC(=O)c2nc(S(=O)(=O)Cc3ccccc3)ncc2Cl)cc1 | inactive | 12.1 | 11 | 111 | 13.1
Oc1ccc(Cl)c2cccnc12 | active | 4.82 | 4.82 | 17.7 | > 79
CCC1=NN(C(=O)c2ccc([N+](=O)[O-])cc2)C(O)(c2ccccc2)C1 (stereo not given) | inactive | 44.8 | 25.2 | 91.7 | 64.4
CCCCC(=O)NC(=S)NNC(=O)c1ccc(OC)cc1 | inactive | 11.5 | 10.2 | 98 | 12.9
COC(=O)c1cc(CSc2nc3ccc(C)cc3[nH]2)oc1C | inactive | 32.9 | 28.7 | 66.8 | 37.1
Cc1cccc(NC(=S)N/N=C/c2ccc([N+](=O)[O-])s2)c1 | inactive | 12.4 | 9.56 | 87.7 | 15.2
COc1cc(/C=C/[N+](=O)[O-])ccc1OC(=O)c1cc2ccccc2oc1=O | inactive | 11.6 | 12.1 | 112 | 11.2
CC1=C(CO)C(=O)OC([C@@H](C)C2CC[C@H]3C4C[C@H]5O[C@]56[C@@H](O)C=CC(=O)[C@]6(C)C4CC[C@]23C)C1 (stereo not given in full) | inactive | 14 | 12.2 | 112 | 15.8
O=C(Nc1ccc(Oc2ccccc2)cc1)c1csc([C@@H]2O[C@H](CO)[C@H](O)[C@H](O)[C@H]2O)n1 | inactive | 40.1 | 40.1 | 57.4 | > 79
Cc1ccc(NCC(=O)c2ccc(C)cc2)cc1 | active | 5.44 | 5.44 | 58.5 | > 79
Cc1cccc(Cc2cnc(N3C(=N)SC(C)C3=O)s2)c1 (stereo not given) | active | 7.79 | 7.79 | 41.4 | > 79
Nc1ccccc1C#CC(=O)c1ccccc1 | inactive | 14.8 | 14.2 | 111 | 15.3
CCOc1ccc(/C=C/[N+](=O)[O-])c2ccccc12 | inactive | 17.2 | 17.3 | 109 | 17.1
CCc1nc2c(OCCC3CCCCC3)cccn2c1N(C)C(=O)c1ccc(C)cc1 | inactive | 18.8 | 17.9 | 111 | 19.6

Structure (SMILES) | outcome | IC50 [1] [µM] | IC50 (CXCR6, run 1, dose range 2) [µM] | inhibition [%] | IC50 (CXCR6, run 2, dose range 2) [µM]
O=C(Nc1ccc(F)cc1)c1nc(S(=O)(=O)Cc2ccccc2)ncc1Cl | inactive | 12.9 | 12.5 | 112 | 13.4
CC(=O)OC1CCC2(C)C(CCC3C4CC=C(C(C)=O)C4(C)OC(=O)CC32)C1 (stereo not given) | inactive | 24.2 | 22.6 | 96.2 | 25.7
CC(=NO)C1CCC2C3CCC4=CC(=NO)CCC4(C)C3C(O)CC12C (stereo not given) | inactive | 28.9 | 12.5 | 75.2 | 45.4
CNC(=O)c1nnsc1S(=O)c1ccc(Cl)cc1 (stereo not given) | inactive | 13 | 13.2 | 112 | 12.7
COc1cc(C(=O)NCC(c2ccco2)N2CCc3ccccc3C2)cc(OC)c1OC (stereo not given) | inactive | 22.3 | 16.7 | 72.2 | 27.8
O=C(NC(=S)Nc1ccccc1O)c1cccnc1 | inactive | 30.3 | 30.3 | 58.4 | > 79
Cc1[nH]n2c(=O)cc(-c3ccc([N+](=O)[O-])cc3)nc2c1-c1ccccc1 | inactive | 14.6 | 13.9 | 81.6 | 15.3
CCc1nnc(NS(=O)(=O)c2ccc(Nc3ccc([N+](=O)[O-])c4nonc34)cc2)s1 | inactive | 34.1 | 29.8 | 92.2 | 38.4
FC(F)(F)c1cnc(NNC(=S)Nc2ccccc2)c(Cl)c1 | inactive | 14.9 | 12 | 112 | 17.8
Fc1ccc(NC(=S)NNc2ncc(C(F)(F)F)cc2Cl)c(F)c1 | inactive | 11.6 | 11.2 | 109 | 12
FC(F)(F)c1cnc(NNC(=S)Nc2cccnc2)c(Cl)c1 | inactive | 21.1 | 11.8 | 107 | 30.4
Cc1ccccc1CS(=O)(=O)c1nnc([C@H](Cc2ccccc2)NC(=O)OC(C)(C)C)o1 | inactive | 15.9 | 16 | 110 | 15.7
COC(=O)c1ccc(C)c(-n2c(=O)n(Cc3ccccc3)c(=O)c3[nH]cnc32)c1 | inactive | 12.9 | 11.6 | 73 | 14.1
CCCNC(=O)c1nnsc1S(=O)(=O)c1ccc(Cl)cc1 | inactive | 14.1 | 13.8 | 112 | 14.3
CCCc1cc(=O)oc2cc(OC(=O)CN3C(=O)NC4(CCCC4)C3=O)ccc12 | inactive | 50.5 | 50.5 | 61.7 | > 79
CCn1c(=O)cc(NC2=NCC(C)CN2c2cccc(Cl)c2)n(C)c1=O (stereo not given) | inactive | 19.1 | 19.3 | 79 | 19
COc1cc(/C=C/[N+](=O)[O-])ccc1OC(=O)c1cccnc1 | inactive | 25.5 | 19.1 | 108 | 31.9
O=[N+]([O-])/C=C/c1ccc2c(ccn2Cc2ccccc2)c1 | inactive | 11.3 | 9.06 | 111 | 13.5
O=C(NCc1cccnc1)/C(=C\c1ccc(-c2cccc(Cl)c2)o1)S(=O)(=O)c1ccccc1 | inactive | 13.8 | 11.9 | 88.9 | 15.7
CCCSc1cc(NCCOC(=O)CCC)c([N+](=O)[O-])c2nonc12 | inactive | 17.7 | 17.6 | 112 | 17.9
COc1cc(/C=C/C(=O)c2ccc(C)c([N+](=O)[O-])c2)cc(OC)c1O | inactive | 19.4 | 16.4 | 75.1 | 22.5
CS(=O)(=O)c1ccc(C(=O)OCC(=O)N2CCN(CCC3CCCCC3)CC2)cc1[N+](=O)[O-] | inactive | 11.2 | 10.6 | 111 | 11.8
O=C(NNC(=O)c1cc(-c2ccccc2)nn1-c1ccccc1)c1ccccc1 | inactive | 11.5 | 10.4 | 75 | 12.6
C=CC[C@H](CC(=O)N(CCO)Cc1ccccc1)C(=O)NC[C@H](OC(=O)[C@@H](CC=C)CC(=O)OC(C)(C)C)c1ccccc1 | inactive | 31 | 33.1 | 76.8 | 29
